The text below walks through data of US9532983B2, “Benzofuran compounds, compositions, kits and/or methods thereof” (Savannah State University, priority 2013, dated 2017).

Assay [1] deals with T1, 5-HT2B (Homo sapiens, UniProt P41595).
T1 construct: expressed in transfected cells
The assay can be described thus: Primary binding assay at non-sigma receptors: 5-HT2B. The following applies: read-out: % Inhibition 5-HT2B. On the procedure: (§1) Initial primary binding screening assays were performed using a 50 μM (initial)−10 μM (final) assay concentration of reference and test compounds.

The target in assay [2] is T2, 5HT3 (Homo sapiens, UniProt P46098).
T2 construct: expressed in transfected cells
T2 sequence (P46098 24-478): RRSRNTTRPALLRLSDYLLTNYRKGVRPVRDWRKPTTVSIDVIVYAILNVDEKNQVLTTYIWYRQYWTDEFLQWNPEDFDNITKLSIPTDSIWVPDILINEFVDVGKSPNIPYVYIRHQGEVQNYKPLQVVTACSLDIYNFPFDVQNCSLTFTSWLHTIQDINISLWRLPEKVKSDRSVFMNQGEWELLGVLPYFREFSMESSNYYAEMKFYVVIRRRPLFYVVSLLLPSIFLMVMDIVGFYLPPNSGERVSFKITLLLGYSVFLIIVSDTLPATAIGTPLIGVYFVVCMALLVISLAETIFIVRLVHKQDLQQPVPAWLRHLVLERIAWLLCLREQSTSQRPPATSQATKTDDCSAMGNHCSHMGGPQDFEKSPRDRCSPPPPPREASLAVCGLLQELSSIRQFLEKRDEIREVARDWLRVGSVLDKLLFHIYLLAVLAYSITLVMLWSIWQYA
Nature of the assay: Primary binding assay at non-sigma receptors: 5HT3. The following applies: 10 μM (final) assay concentration. Here is the method: as §1

For assay [3], the system named is σ1 receptor. Nature of the assay: Western blot, expression of σ1 receptor in MA-10 cells. Format: cell-based, mouse. The following applies: 24 h, increasing concentrations. On the procedure: (§2) Cells were maintained at 37° C. in a humidified incubator under 5% CO2. To isolate mitochondria, cells were removed from tissue culture plates by gentle scrapping in phosphate-buffered saline at room temperature, incubated in hypotonic buffer (10 mM HEPES, pH 7.4) for 30 to 40 min, and mitochondria were isolated following readily available procedures. The mitochondrial preparation was verified by Western blotting with the cytochrome P450 SCC enzyme (Corgen, Tapai, Taiwan) and calnexin antibodies (Santa Cruz Biotechnology, Inc., Santa Cruz, Calif.).
(§3) The membrane was blocked with 3% nonfat dry milk for 45 min, probed overnight with the primary antibodies, and then incubated with […] goat anti-rabbit or anti mouse IgG (Thermo Fisher Scientific, Waltham, Mass.). Signals were developed with chemiluminescent reagent (Thermo Fisher Scientific). For loading control of all Western blots, the membrane was stained with β-actin antibody, which was previously independently stained with StAR or 3-β-hydroxysteroid dehydrogenase (3βHSD2) or VDAC1 and VDAC2 antiserum. The band intensity was determined by using Image Quant 5.2 (Phosphorimager; GE Healthcare, Chalfont St. Giles, Buckinghamshire, UK). Densitometric calculation may reflect the ratio of σ1 or VDAC2 and β-actin following an established procedure that is readily available.
(§4) In addition, VDAC2 antibody (FIG. 3E) was used to probe and was compared with β-actin expression (FIG. 3F) of the same membrane.
(In general: In western blotting, separated proteins are transferred to a membrane and probed.)

Assay [4] deals with 3βHSD2. Nature of the assay: Western blot, expression of 3βHSD2 in MA-10 cells. The assay is classed as cell-based, mouse. As to conditions: any concentration. Here is the method: as §2, with “Mouse Leydig cell line (MA-10) was grown in Waymouth media containing 15% horse serum, 5% fetal bovine serum, and 1× gentamycin, which was replaced with […] G418 (geneticin) for VDAC1 knockdown (ΔVDAC1) MA10 cells. Cells” for “Cells”
as §3, with “Protein (12.5 μg) was separated by 15% SDS-polyacrylamide gel electrophoresis and transferred to a polyvinylidinedifluoride membrane (Millipore Corporation, Billerica, Mass.). The membrane” for “The membrane”
as §4

Assay [5] has as its system VDAC2. The assay can be described thus: Western blot / densitometry, expression of VDAC2 in MA-10 cells. Format: cell-based, mouse. The following applies: increasing concentrations. Here is the method:
as §2, with “Mouse Leydig cell line (MA-10) was grown in Waymouth media containing 15% horse serum, 5% fetal bovine serum, and 1× gentamycin, which was replaced with […] G418 (geneticin) for VDAC1 knockdown (ΔVDAC1) MA10 cells. Cells” for “Cells”
as §3, with “Protein (12.5 μg) was separated by 15% SDS-polyacrylamide gel electrophoresis and transferred to a polyvinylidinedifluoride membrane (Millipore Corporation, Billerica, Mass.). The membrane” for “The membrane”
as §4

The test system of assay [6] is mitochondria from steroidogenic MA-10 cells. The assay can be described thus: Metabolic conversion of [3H]pregnenolone to progesterone in isolated MA-10 mitochondria. The assay is classed as biochemical, mouse. Here is the method:
as §2, with “Mouse Leydig cell line (MA-10) was grown in Waymouth media containing 15% horse serum, 5% fetal bovine serum, and 1× gentamycin, which was replaced with […] G418 (geneticin) for VDAC1 knockdown (ΔVDAC1) MA10 cells. Cells” for “Cells”
To measure the conversion of [^3H]pregnenolone to [^3H]progesterone, isolated mitochondria from steroidogenic MA-10 cells (300 μg) were incubated in phosphate buffer along with the substrate, and the reaction was initiated by the NAD. For metabolic conversion of [^14C]cholesterol to pregnenolone, the reaction was initiated by the addition of NADPH, and for complete conversion we used 5-fold excess of cold carrier to reach the saturation point. The steroids were extracted with ether/acetone (9:1 v/v), and equal amounts of a cold pregnenolone-progesterone (50:50; Sigma, St. Louis, Mo.) mixture in CH2C12 was added as a carrier. The extracts were concentrated under a stream of nitrogen or air and then separated by thin-layer chromatography (TLC) (Whatman, Clifton, N.J.) using a chloroform/ethyl acetate (3:1) mobile phase.
Given the potential role of σ1 in steroidogenesis (FIG. 4A), we performed conversion assays in the presence of three sigma receptor ligands. […] The possibility exists that the σ1 receptor transiently interacts with the OMM-associated porins. As such, the increased levels of σ1 receptor with KSCM-11 may enhance the transport of substrate cholesterol into the mitochondria, thereby increasing progesterone synthesis.

In assay [7] the target is T3, σ1 receptor (Rattus norvegicus, UniProt Q9R0C9).
T3 construct: crude membrane fractions prepared from rat brain homogenate for σ1 receptors; from tissue; host or cells: rat brain homogenate, crude membrane fraction
The assay can be described thus: Secondary binding assay, Ki determination at σ1 receptor ([3H]pentazocine). As to conditions: rat brain homogenate, read-out: σ-1 (Ki).

Assay [8] deals with T4, 5-HT2A (Homo sapiens, UniProt P28223).
T4 construct: expressed in transfected cells
Nature of the assay: Secondary binding assay, Ki determination: 5-HT2A.

The mark [9] stands for this setting: higher concentrations than 10 nM.

The structures appear in SMILES notation. Where “and” joins values, the source holds several entries; their conditions need not be identical. Equal values may be shown once. Entries after “also recorded” stand apart in the source; their conditions may differ. Read-outs that look alike come from different tables or passages of the source.

Usually inhibition stands for the share of the control response that was lost under treatment. As a reminder, the Ki is a measure of affinity in units of concentration, obtained from inhibition or displacement.

T1 sequence (P41595 whole entry, species assumed): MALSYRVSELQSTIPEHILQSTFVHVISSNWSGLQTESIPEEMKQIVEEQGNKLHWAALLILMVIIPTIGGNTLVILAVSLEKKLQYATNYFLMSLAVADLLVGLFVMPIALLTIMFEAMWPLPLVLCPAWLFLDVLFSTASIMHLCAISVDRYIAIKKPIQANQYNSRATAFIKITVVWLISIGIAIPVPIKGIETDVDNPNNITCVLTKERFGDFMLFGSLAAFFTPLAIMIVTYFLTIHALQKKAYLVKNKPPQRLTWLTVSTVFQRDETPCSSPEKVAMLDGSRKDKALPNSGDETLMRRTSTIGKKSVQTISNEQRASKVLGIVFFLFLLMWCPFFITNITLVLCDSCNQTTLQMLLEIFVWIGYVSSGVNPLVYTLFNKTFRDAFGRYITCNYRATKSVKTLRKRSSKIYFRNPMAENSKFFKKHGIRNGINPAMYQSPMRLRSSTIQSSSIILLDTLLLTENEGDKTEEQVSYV
T3 sequence (Q9R0C9 whole entry): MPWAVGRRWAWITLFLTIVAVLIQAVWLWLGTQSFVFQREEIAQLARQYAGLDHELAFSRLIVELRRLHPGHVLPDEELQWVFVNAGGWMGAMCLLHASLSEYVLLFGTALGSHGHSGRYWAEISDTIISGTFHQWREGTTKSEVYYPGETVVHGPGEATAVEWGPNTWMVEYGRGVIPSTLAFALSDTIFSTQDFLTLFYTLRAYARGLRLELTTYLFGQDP
T4 sequence (P28223 whole entry): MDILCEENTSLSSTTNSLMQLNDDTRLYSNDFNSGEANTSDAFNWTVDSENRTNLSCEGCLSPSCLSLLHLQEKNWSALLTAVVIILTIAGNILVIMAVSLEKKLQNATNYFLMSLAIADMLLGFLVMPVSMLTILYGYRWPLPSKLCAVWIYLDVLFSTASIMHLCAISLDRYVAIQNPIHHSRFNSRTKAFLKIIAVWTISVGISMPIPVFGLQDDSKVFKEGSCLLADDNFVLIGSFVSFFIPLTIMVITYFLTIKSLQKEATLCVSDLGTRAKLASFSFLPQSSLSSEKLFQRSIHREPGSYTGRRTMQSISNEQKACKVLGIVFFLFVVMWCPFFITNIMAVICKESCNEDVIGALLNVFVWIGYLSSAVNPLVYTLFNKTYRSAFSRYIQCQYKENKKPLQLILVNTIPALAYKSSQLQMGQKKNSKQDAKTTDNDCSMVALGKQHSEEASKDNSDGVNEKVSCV

Regarding `Cc1c(C(=O)N(CCCN2CCCCC2)c2ccccc2)oc2ccccc12` [KSCM-5, 3-Methyl-N-phenyl-N-(3-(piperidin-1-yl)propyl)benzofuran-2-carboxamide], the inhibition at 10 µM in assay [1] (primary binding assay, 10 μM (final) assay concentration) is 69.2%; in assay [2] it was 2.9%. For the same molecule, the “expression of the σ1 receptor (in words)” value in assay [3] is given as “increased only minimally; also recorded: remained unchanged”. Further, the “level of 3βHSD2 (in words)” value in assay [4] is on record as “no change”. In assay [5], the “expression of VDAC2 (in words)” value is listed as “decreased with increasing concentrations”. For the same molecule, the “effect on progesterone conversion (in words)” value (“effect” for short) in assay [6] (10 nM) is given as “no effect”; in assay [6] (setting [9]), “conversion decreased significantly”.

Consider `COc1ccc2c(C)c(C(=O)N(CCCN3CCCCC3)c3ccccc3)oc2c1` [KSCM-11, 6-Methoxy-3-methyl-N-phenyl-N-(3-(piperidin-1-yl)propyl)benzofuran-2-carboxamide], for which the inhibition at 10 µM in assay [1] was 93.9%; in assay [2], 7.3%. Further, the Ki in assay [7] turned out to be 34 nM; in assay [8] it was 2770 nM. Further, the “expression of the σ1 receptor (in words)” value in assay [3] is “increased expression; also recorded: moderately increased”. Besides, the “level of 3βHSD2 (in words)” value in assay [4] was “no change”. Further, the “expression of VDAC2 (in words)” value in assay [5] was “decreased with increasing concentrations”. Also, the “effect” value is “no effect” in assay [6] (10 nM) and “conversion decreased significantly” in assay [6] (setting [9]).

As for `COc1cc2oc(C(=O)N(CCCN3CCCCC3)c3ccccc3)c(C)c2cc1OC` [KSCM-1, 5,6-Dimethoxy-3-methyl-N-phenyl-N-(3-(piperidin-1-yl)propyl)benzofuran-2-carboxamide], the values for the inhibition at 10 µM in assay [1] and in assay [2] were 43.8% and 64.2%, respectively. Besides, the Ki in assay [7] was 27 nM and 27.5 nM; in assay [8], 2560 nM. For the same molecule, in assay [3], the “expression of the σ1 receptor (in words)” value is given as “increased expression; also recorded: increased with increasing concentrations”. In addition, the “level of 3βHSD2 (in words)” value in assay [4] is listed as “no change”. In addition, the “expression of VDAC2 (in words)” value in assay [5] is recorded as “increased with increasing concentrations”. For the same molecule, the “effect” value in assay [6] (setting [9]) was “reduced conversion to the basal level”.
